Laboratory results reported in publication PMC9977887, “Crocodile defensin (CpoBD13) antifungal activity via pH-dependent phospholipid targeting and membrane disruption” (Nature Communications, 2023).
Like-named read-outs stand apart in the source and are kept apart here.

Columns and labels:
C. albicans ATCC 10231 = experiment: Fungal growth inhibition assay; assay type: cell-based, Candida albicans; conditions: 24 h; for IC50: unit not in table, µM, read-out: IC50
Method: For fungal growth assays, overnight cultures of C. albicans ATCC 10231 cells (yeast peptone dextrose broth, 30°C, shaking at 160 rpm) were pelleted (2000 g, 5 min), washed once in 0.5× potato dextrose broth (BD Biosciences, Franklin Lakes, NJ) and finally resuspended in the same media. Cells were seeded onto a 96-well plate (400 cells, 50 µL) and treated with an equal volume of varying concentrations of defensin in 0.5× potato dextrose broth. After incubating the samples (24 h, 30 °C), the plates were shaken to distribute the cells and growth was determined by performing a 9-well scan (600 nm) using a Spectramax M5e microplate reader (Molecular Devices, San Jose, CA). For assays testing defensin salt tolerance, C. albicans cells were instead resuspended in 1x potato dextrose broth and treated with an equal volume of CpoBD13 + NaCl solution at their intended concentrations. Propidium iodide (PI) uptake assays were performed by preparing the cells as per the standard growth inhibition assay however they were instead seeded onto a U-bottom 96-well plate (50,000 cells, 25 µL). […] For PI uptake experiments performed at a specific pH, the same method was followed with the exception that cells were resuspended in 1× potato dextrose broth while defensin titrations were diluted in 40 mM MES buffer at the intended pH. An example PI uptake gating strategy is presented in Supplementary Fig. 1d.

Liposome pulldown = assay type: binding; conditions: 1 µg defensin; for Fraction of total protein (%), bound fraction: pH 5.5 (20 mM MES); for Fraction of total protein (%), Bound: pH 7.4
Method: (§1) Liposomes were prepared using natural chicken egg L-α-phophatidylcholine and L-α-phosphatidic acid dissolved in chloroform (Avanti Polar Lipids), and liposome pulldowns (at pH 7.4) and calcein-encapsulated liposome lysis assays were performed as previously described. For liposome pulldowns performed at pH 5.5, the same protocol was used with minor variations. The desiccated lipid films were resuspended in 20 mM MES pH 7.4 and were washed in the same buffer during the centrifugation process. After the final wash step, the liposome pellets were resuspended in 20 mM MES pH 5.5 and incubated with CpoBD13 or mutants thereof (also prepared in the same acidic buffer).

[1] = Calcein-encapsulated liposome lysis assay; assay type: biochemical
Method: as §1

PC only liposomes = experiment: liposome pulldown; conditions: 1 µg peptide, PC only, read off a plot
[2] = molecular target: PC:PA liposomes (95:5 molar ratio PC:PA); experiment: liposome pulldown; conditions: 1 µg peptide, 95:5 molar ratio PC:PA, read off a plot
[3] = molecular target: the molecule itself; experiment: cross-linking; BS(PEG)5 cross-linker; CpoBD13 (1 mg/mL stock) with 0 or 23 µM phosphatidic acid (08:0 PA; 0 or 0.092 mM stock), 20 mM HEPES pH 7.1, 30 min; SDS-PAGE and colloidal Coomassie
[4] = molecular target: the molecule itself; experiment: cross-linking; BS(PEG)5 cross-linker; CpoBD13 or mutant (1 mg/mL stock) with 115 µM phosphatidic acid (08:0 PA; 0.46 mM stock), 20 mM HEPES pH 7.1, 30 min; SDS-PAGE and colloidal Coomassie
[5] = PC:PA 95:5 liposomes, replicate 1
[6] = PC:PA 95:5 liposomes, replicate 2
[7] = PC:PA 95:5 liposomes, replicate 3

With “CpoBD13 (H35A): CpoBD13 point mutant H35A” the “fungal growth inhibition activity compared to the wild type” value (C. albicans ATCC 10231; IC50 comparison, two-tailed unpaired t test) was “No significant differences”, the IC50 (C. albicans ATCC 10231; Replicate 1) was 4.14 µM and the IC50 (C. albicans ATCC 10231; Replicate 2) was 4.17 µM. The IC50 (C. albicans ATCC 10231; Replicate 3) was 4.2 µM, the “Fraction of total protein (%), bound fraction” value (“Fraction … (%), bound fraction” for short) (Liposome pulldown; PC only liposomes, replicate 1) was 23.8871% and the “Fraction … (%), bound fraction” value (Liposome pulldown; PC only liposomes, replicate 2) was 10.4017%. The “Fraction … (%), bound fraction” value (Liposome pulldown; PC only liposomes, replicate 3) was 20.2373%, the “Fraction of total protein (%), Bound” value (Liposome pulldown; PC only liposomes, replicate 1) was 14.047% and the “Fraction of total protein (%), Bound” value (Liposome pulldown; PC only liposomes, replicate 2) was 12.1176%. For the same molecule, the “Fraction of total protein (%), Bound” value (Liposome pulldown; PC only liposomes, replicate 3) was 23.9918%, the “Fraction … (%), bound fraction” value (Liposome pulldown; [5]) was 106.585% and the “Fraction … (%), bound fraction” value (Liposome pulldown; [6]) was 65.0801%. The “Fraction … (%), bound fraction” value (Liposome pulldown; [7]) was 97.4485%, the “Fraction of total protein (%), Bound” value (Liposome pulldown; [5]) was 42.5181% and the “Fraction of total protein (%), Bound” value (Liposome pulldown; [6]) was 53.6354%. For the same molecule, the “Fraction of total protein (%), Bound” value (Liposome pulldown; [7]) was 32.306%, the “Lysis (%)” value ([1]; PC liposomes, replicate 1) was 59.2077% and the “Lysis (%)” value ([1]; PC liposomes, replicate 2) was 47.882%. The “Lysis (%)” value ([1]; PC liposomes, replicate 3) was 48.469%, the “Lysis (%)” value ([1]; PC:PA liposomes, replicate 1) was 63.0445% and the “Lysis (%)” value ([1]; PC:PA liposomes, replicate 2) was 68.1197%. The “Lysis (%)” value ([1]; PC:PA liposomes, replicate 3) was 58.6174%.

For “Crocodylus porosus β-defensin 13 (CpoBD13) (from UniProt A0A7G6KN55) H21A”, the response (% (fraction of total)) (PC only liposomes; pH 5.5, parent: est. 20) was 15, the response (% (fraction of total)) (PC only liposomes; pH 7.4, parent: est. 15) was 23 and the response (% (fraction of total)) ([2]; pH 5.5, parent: est. 88) was 69. It also gave a response (% (fraction of total)) ([2]; pH 7.4, parent: est. 43) of 38.

In the case of “Crocodylus porosus β-defensin 13 (CpoBD13) (from UniProt A0A7G6KN55) H33A”, the response (% (fraction of total)) (PC only liposomes; pH 5.5, parent: est. 20) is reported as 20, the response (% (fraction of total)) (PC only liposomes; pH 7.4, parent: est. 15) is reported as 18 and the response (% (fraction of total)) ([2]; pH 5.5, parent: est. 88) is reported as 78. For the same molecule, the response (% (fraction of total)) ([2]; pH 7.4, parent: est. 43) was 38.

With “Crocodylus porosus β-defensin 13 (CpoBD13) (from UniProt A0A7G6KN55) H35A” the response (% (fraction of total)) (PC only liposomes; pH 5.5, parent: est. 20) was 18, the response (% (fraction of total)) (PC only liposomes; pH 7.4, parent: est. 15) was 15 and the response (% (fraction of total)) ([2]; pH 5.5, parent: est. 88) was 90. It also gave a response (% (fraction of total)) ([2]; pH 7.4, parent: est. 43) of 42.

Molecule “Crocodylus porosus β-defensin 13 (CpoBD13) (from UniProt A0A7G6KN55) R9A” has a response (% (fraction of total)) (PC only liposomes; pH 5.5, parent: est. 20) of 34, a response (% (fraction of total)) (PC only liposomes; pH 7.4, parent: est. 15) of 10 and a response (% (fraction of total)) ([2]; pH 5.5, parent: est. 88) of 80. It also gave a response (% (fraction of total)) ([2]; pH 7.4, parent: est. 43) of 17.

“Crocodylus porosus β-defensin 13 (CpoBD13) (from UniProt A0A7G6KN55) R17A” gave a response (% (fraction of total)) (PC only liposomes; pH 5.5, parent: est. 20) of 22, a response (% (fraction of total)) (PC only liposomes; pH 7.4, parent: est. 15) of 13 and a response (% (fraction of total)) ([2]; pH 5.5, parent: est. 88) of 87. For the same molecule, the response (% (fraction of total)) ([2]; pH 7.4, parent: est. 43) was 26.

B1: Crocodylus porosus β-defensin 13 (CpoBD13) (peptide, UniProt A0A7G6KN55 22-61, looked up)
chain: NGSYYSTLQCRNNHGHCRRLCFHGEQWIGNCNGRHQHCCK
notes: Crocodylus porosus β-defensin 13, mature defensin domain (nucleotides 142-255 of XM_019537183.1, limits set with SignalP); 114 nucleotides would give 38 residues; Three disulphide bonds; also called wild type CpoBD13; saltwater crocodile defensin; source: Pichia pastoris (pPIC9 vector), purified by cation exchange chromatography
For B1, the “stoichiometry N” value [3] was 2 and the “stoichiometry N” value [4] was no more than 5.
